Test results from US20220062255A1 (PRILENIA NEUROTHERAPEUTICS LTD., priority 2016, published 2022).
Values joined by “and” are separate entries in the source; they are usually repeats but may differ in a detail not shown here. Equal entries are not always repeated. Where two headings read alike, the source gives them in different places. Blank lines part the entries; values can stand above or below the compound they belong to.

What was measured:
Sigma-1 Receptor (S1R) = target: T1, Sigma-1 Receptor (S1R) (Homo sapiens, UniProt Q99720); test: In-vitro binding assay, Sigma-1 receptor; conditions: Cheng Prusoff; Eurofins Panlabs; source Johnston et al. 2019 and NC20-PHARM-2
T1 construct: Eurofins Panlabs Taiwan; Ltd. (performed the assay)
T1 sequence (Q99720 whole entry, species assumed): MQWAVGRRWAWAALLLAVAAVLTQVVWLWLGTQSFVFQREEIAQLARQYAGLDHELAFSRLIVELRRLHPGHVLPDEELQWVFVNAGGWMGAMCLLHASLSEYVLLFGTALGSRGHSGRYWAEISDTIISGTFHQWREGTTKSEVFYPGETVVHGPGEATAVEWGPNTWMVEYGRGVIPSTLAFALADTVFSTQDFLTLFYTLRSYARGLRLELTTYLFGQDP
Procedure: (§1) In-vitro binding assays performed at Eurofins Panlabs Taiwan. Ltd. Specific ligand binding was determined in the presence of an excess of unlabelled ligand.

Sigma-2 receptor (S2R) = target: T2, Sigma-2 receptor (S2R) (Homo sapiens, UniProt Q5BJF2); test: In-vitro binding assay, Sigma-2 receptor; conditions: Cheng Prusoff; Eurofins Panlabs; source Johnston et al. 2019 and NC20-PHARM-2
T2 construct: Eurofins Panlabs Taiwan; Ltd. (performed the assay)
T2 sequence (Q5BJF2 whole entry, species assumed): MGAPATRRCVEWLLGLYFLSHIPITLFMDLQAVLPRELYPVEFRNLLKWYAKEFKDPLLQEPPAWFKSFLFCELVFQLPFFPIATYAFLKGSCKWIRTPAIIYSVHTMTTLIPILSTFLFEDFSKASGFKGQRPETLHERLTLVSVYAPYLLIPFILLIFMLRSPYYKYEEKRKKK
Procedure: as §1

[1] = tested on: BDNF secretion from B104 neuroblastoma cells; test: BDNF in-situ ELISA, B104 neuroblastoma cells; assay type: cell-based, rat; conditions: together with pridopidine
retinitis pigmentosa = conditions: periodic oral administration; paper example
wet AMD = conditions: long-term oral administration; paper example
RGCs [2] = conditions: day 14; for number of RGCs per retinal area, Control eye, Mean: contralateral eye; for RGC Difference % (decrease, lasered vs control eye): vehicle 16.7%
Procedure: In Wistar rats, the laser coagulation (LC) model of experimental glaucoma was utilized.
(§2) Unilateral induction of IOP elevation was performed twice, at day 0 and day 7. IOP increase was induced by 532 nm diode laser (Oculight® TX; Iridex) photocoagulation of episcleral veins, as previously described. IOP was measured with a TonoLab tonometer.
(§3) IOP was measured at baseline, and after laser photocoagulation on days 1, 4, 7, 8, and 14 (FIG. 10).
On day 14, rats were sacrificed by transcardial perfusion, first with 0.9% NaCl solution, then with 4% PFA in 0.1M phosphate buffer, pH 7.4. Eyes and optic nerves were collected for immunohistochemical analysis. The number of RGCs was quantified using immunofluorescent staining for RNA-binding protein with multiple splicing (RBPMS), an RGC-specific marker, and DAPI nuclear stain followed by stereological analysis of the entire retina (FIG. 11).

[3] = tested on: laser coagulation (LC) model of experimental glaucoma; conditions: for Area under curve (AUC) of IOP, Total Area: lasered eyes, vehicle 272, contralateral control 185
Procedure: as §2, §3

[4] = tested on: Retinal Ganglion Cells (RGCs); conditions: for RGC Loss (%): day 41, OD (OHT) vs OS eye, mean±SEM, DDW control 43±6%; for RGC neuroprotection (%): vs DDW control
Procedure: In this model, sclerosis of the aqueous veins via retrograde introduction of hypertonic saline increases intraocular pressure (IOP). Hypertonic saline injection (HSI) was performed on day 0 and day 7 into the episcleral veins of the right eye of pigmented Brown Norway. Rats were sedated with ketamine and xylazine (40-80 and 5-10 mg/kg, respectively), kept warm and eyes moist to avoid desiccation during the procedure. Eye surface was treated with erythromycin (0.5%). On Days 0 and 7, hypertonic saline solution (250 μL, NaCl, 1.8-2.0M) was injected into the limbal vascular plexus via different episcleral veins in the OHT eye. For IOP measurement, corneas were anaesthetized with 0.5% proparacaine HCl ophthalmic solution and then IOP measured using a Tono-Pen Vet. Ten repeated readings were averaged from each eye. […] Over the course of the study, animals were clinically evaluated daily, and IOP and body weight measured weekly (FIG. 1).
The number of RGCs was quantified using immunofluorescent staining for the RGC marker brain-specific homeobox/POU domain protein 3A (Brn-3a), followed by image analysis. Eyes were immediately enucleated following CO2 euthanization and fixed in paraformaldehyde (PFA, 4%) at 4° C. for 24 hours, then dissected in PBS. Retinas were permeabilized in PBS+0.5% Triton X-100 for 15 minutes, frozen at −80° C. for 15 minutes, then rinsed in PBS-0.5% Triton. […] Four radial cuts were made in the retina and it was flat-mounted. Two regions of interest (medial and distal) were acquired in each quadrant (FIG. 3) with fluorescent microscopy, and RGCs counted using ImageJ.
The percent of RGC loss was calculated by comparing the number of RGC counts per retina in the OD eye to that in the OS eye from the same animal. […] RGC neuroprotection (%) in each animal was calculated as following: [100×((1−RGC Loss (%)/Average RGC Loss (%) in Control group))]. […] Representative images of RGC staining can be seen in FIG. 5.

glaucoma = conditions: long-term oral administration; paper example
RGCs [5] = conditions: topical to the HSI treated eye, paper example
dry AMD = conditions: long-term oral administration; paper example
Excerpt: The pathological correlation for the decline of visual acuity is the progressive expansion of the degenerated area of the retina (i.e., geographic atrophy), specifically in the macula.

optic neuropathy = conditions: long-term oral administration; paper example
optic nerve axons = conditions: for Number of optic nerve axons, Lasered eye, Mean / Number of optic nerve axons, Control eye, Mean / loss of optic nerve axons, Difference % (LC eye vs control eye): day 14; for Number of optic nerve axons, Control eye, Mean: contralateral eye; for loss of optic nerve axons, Difference % (LC eye vs control eye): vehicle 27.5% in text; for Axonal protection (%): vs vehicle group
Procedure: Neuroprotective preservation of visual function in glaucoma and other optic neuropathies depends not only on preservation of cell bodies, but also on maintaining connectivity between the eye and the brain. Connectivity is preserved by protecting RGC axons which make up the optic nerve. […] Unilateral induction of IOP elevation was performed twice, at day 0 and day 7. IOP increase was induced by 532 nm diode laser (Oculight® TX; Iridex) photocoagulation of episcleral veins, as previously described. IOP was measured with a TonoLab tonometer.
IOP was measured at baseline, and after laser photocoagulation on days 1, 4, 7, 8, and 14.
On day 14, rats were sacrificed by transcardial perfusion, first with 0.9% NaCl solution, then with 4% PFA in 0.1M phosphate buffer, pH 7.4. Eyes and optic nerves were collected for immunohistochemical analysis.
Optic nerves were postfixed in 4% PFA (in 0.1M phosphate buffer, pH 7.4), placed in 1% osmium, dehydrated in ascending alcohol concentrations, and placed in 1% uranyl acetate in 100% ethanol for 1 hour. Optic nerves were embedded in epoxy resin mixture at 60° C. for 48 hours and 1 μm sections prepared. Axon number was estimated using stereology.
High IOPs immediately after LC procedure could be associated with retinal ischemia, and low IOP's could indicate failure to establish the model.

[6] = tested on: BDNF secretion from B104 neuroblastoma cells; conditions: in-situ ELISA; Geva, et al. 2016; cited from earlier work

Ki (Sigma-1 Receptor (S1R)): 2900 nM
Ki (Sigma-2 receptor (S2R)): > 100000 nM
Structure (SMILES): CCCN1CC[C@@H](c2cccc(S(C)(=O)=O)c2)[C@@H](O)C1 [Compound 4]
effect with pridopidine on BDNF secretion [1]: synergistic effect

Structure (SMILES): CCCN1CCC(c2cccc(S(C)(=O)=O)c2)CC1 [Pridopidine, 4-(3-(Methylsulfonyl)phenyl)-1-propylpiperidine]
efficacy in retinitis pigmentosa patients (retinitis pigmentosa): effective in treating human patients with retinitis pigmentosa
efficacy in wet AMD patients (wet AMD): effective in treating human patients with wet AMD
number of RGCs per retinal area, Lasered eye, Mean (RGCs [2]; 3 mg/kg oral daily): 1315
number of RGCs per retinal area, Control eye, Mean (RGCs [2]; 3 mg/kg oral daily): 1404
RGC Difference % (decrease, lasered vs control eye) (RGCs [2]; 3 mg/kg oral daily): 5.2%
number of RGCs per retinal area, Lasered eye, Mean (RGCs [2]; 30 mg/kg oral daily): 1336
number of RGCs per retinal area, Control eye, Mean (RGCs [2]; 30 mg/kg oral daily): 1444
RGC Difference % (decrease, lasered vs control eye) (RGCs [2]; 30 mg/kg oral daily): 7.7%
number of RGCs per retinal area, Lasered eye, Mean (RGCs [2]; 60 mg/kg oral daily): 1198
number of RGCs per retinal area, Control eye, Mean (RGCs [2]; 60 mg/kg oral daily): 1417
RGC Difference % (decrease, lasered vs control eye) (RGCs [2]; 60 mg/kg oral daily): 13.9%
Area under curve (AUC) of IOP, Total Area ([3]; 3 mg/kg oral daily): 255
Area under curve (AUC) of IOP, Total Area ([3]; 30 mg/kg oral daily): 289
Area under curve (AUC) of IOP, Total Area ([3]; 60 mg/kg oral daily): 295
effect on IOP of lasered eyes ([3]; 3, 30 and 60 mg/kg oral daily, one-way ANOVA, P≥0.26): no difference in the IOP of lasered eyes
RGC Loss (%) ([4]; 3 mg/kg oral daily): 25±7% and 25%
RGC neuroprotection (%) ([4]; 3 mg/kg oral daily): 42%
RGC Loss (%) ([4]; 30 mg/kg oral daily): 21±6% and 21%
RGC neuroprotection (%) ([4]; 30 mg/kg oral daily): 50%
RGC Loss (%) ([4]; 60 mg/kg oral daily): 7±9% and 7%
RGC neuroprotection (%) ([4]; 60 mg/kg oral daily): 83%
efficacy in glaucoma patients (glaucoma): effective in treating human patients with glaucoma
viability of the RGCs and RGC loss (RGCs [5]; groups 2, 3 and 4 vs group 1): significantly increases viability of the RGCs and reduces RCG loss
protection of RGC axons (RGCs [5]): protects RGC axons
efficacy in dry AMD patients (dry AMD): effective in treating human patients with dry AMD
efficacy in optic neuropathy patients (optic neuropathy): effective in treating human patients with optic neuropathy
Number of optic nerve axons, Lasered eye, Mean (optic nerve axons; 3 mg/kg oral daily): 358
Number of optic nerve axons, Control eye, Mean (optic nerve axons; 3 mg/kg oral daily): 394
loss of optic nerve axons, Difference % (LC eye vs control eye) (optic nerve axons; 3 mg/kg oral daily): 8.6%
Axonal protection (%) (optic nerve axons; 3 mg/kg oral daily): 69%
Number of optic nerve axons, Lasered eye, Mean (optic nerve axons; 30 mg/kg oral daily): 363
Number of optic nerve axons, Control eye, Mean (optic nerve axons; 30 mg/kg oral daily): 433
loss of optic nerve axons, Difference % (LC eye vs control eye) (optic nerve axons; 30 mg/kg oral daily): 15%
Axonal protection (%) (optic nerve axons; 30 mg/kg oral daily): 45%
Number of optic nerve axons, Lasered eye, Mean (optic nerve axons; 60 mg/kg oral daily): 365
Number of optic nerve axons, Control eye, Mean (optic nerve axons; 60 mg/kg oral daily): 395
loss of optic nerve axons, Difference % (LC eye vs control eye) (optic nerve axons; 60 mg/kg oral daily): 7.24% and 7.6%
Axonal protection (%) (optic nerve axons; 60 mg/kg oral daily): 74%
BDNF secretion in rat neuroblastoma cells [6]: dose dependent increase in BDNF secretion

Structure (SMILES): CCCN1CCC(O)(c2cccc(S(C)(=O)=O)c2)CC1 [Compound 1]
Ki (Sigma-1 Receptor (S1R)): 370 nM
Ki (Sigma-2 receptor (S2R)): > 100000 nM
effect with pridopidine on BDNF secretion [1]: synergistic effect
